Experimental data: patent US20140000476A1, “HYDROPHOBIC AND LIPOPHOBIC COMPOSITION COMPRISING COMPOUNDS HAVING A BISPHOSPHONIC AND THIOL GROUP” (SURFACTIS TECHNOLOGIES, priority 2010, published 2014)

Assay: Contact angle on coated gold
Type: physicochemical
Conditions: molecule alone at 10^−3M, soaking 30 minutes
Procedure: Degrease the parts by washing in a solvent (acetone or IPA) under ultrasound for 5 minutes then dry the parts under a stream of hot air.
Deposit • Place the part or parts in a container with an adapted shape • Cover the part or parts with coating solution (thiol, BP or BP/thiol-PFPE mixture), • Incubate between 5 minutes and 360 minutes, • Eliminate the supernatant—remove the part, • The part is drip dried (centrifugation).
Dehydration—Rinsing • The part which received the deposit is placed in an oven at 120° C. for a period ranging from 6 to 15 h (only for rubies and silicon), • The part is brought back to room temperature then immersed in IPA under ultrasound for 2 minutes, • The part is dried under a stream of hot air. […]
The lipophobic effect was evaluated by measuring the contact angles of a test oil having surface tension of 33 mN/m on different surfaces.
According to the deposit procedure described in paragraph 3, the materials were treated by the mixture of the thiol molecule I.3. with the BP molecule II.1. dissolved in IPA. The contact angles were measured before and after treatment of the surface. […]
The properties of thiol and bisphosphonate molecules in isolation were measured on the surfaces of steel and gold-plated substrates using solutions at 10^−3 M and in isopropanol in accordance with the protocol described in example 3 above, with a soaking time of 5 minutes.

## O=C(NCCS)C(F)(F)C(F)(F)C(F)(F)C(F)(F)C(F)(F)C(F)(F)C(F)(F)F [I.5]
Solvent IPA
  contact angle of the gold-plated brass part with the test oil: 67.6 ± 3.6°
Solvent MMCC (Biosane T212)
  contact angle of the gold-plated brass part with the test oil: 49.5 ± 2.5°
